Data on 13 molecules can be found in US11389456B2, “Compounds and methods for treating oxalate-related diseases” (OxaluRx, Inc., priority 2018, dated 2022).

Data set [1] has as its target recombinant full-length human hydroxyacid oxidase 1 (HAO1), the equivalent of hGOX (Homo sapiens (Human), UniProt Q9UJM8). Nature of the data set: In-vitro human glycolate oxidase (hGOX) assay (Amplex red/HRP fluorescence). In kind it is biochemical.
Description: Biological Activity Assay: In-Vitro Human Glycolate Oxidase (hGOX) Assay
The in-vitro glycolate oxidase assay was performed using recombinant full-length human hydroxyacid oxidase 1 (HAO1), the equivalent of hGOX. […] Purified HAO1 was dissolved in assay buffer consisting of 10 mM NaCl, 110 mM KCl, 2 mM MgCl2, 50 mM HEPES (pH 7.4) and 0.01% Triton™ X-100.
A short description of data set [2]: Protein binding (plasma equilibrium dialysis). In kind it is in vitro ADME. Particulars: 5 hours at 37° C.; for fraction unbound at 5 h, 1 μM: read-out: Protein Binding Fraction Bound (converted). An outline of the steps: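 Compound spiked into plasma at 1 μM final (0.2% DMSO) and dialysed against phosphate buffer for 5 hours at 37 °C with shaking. Donor and receiver samples, matrix-matched and acetonitrile-quenched with internal standard, quantified by LC/MS/MS alongside 0-hour plasma samples.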

Data set [3] can be described thus: Solubility in aqueous solution (deionized, distilled water). Type of data set: physicochemical. Conditions: kinetic from dmso stock, 1% DMSO, read-out: Aqueous Solubility H2O. In a few lines:
(§1)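 DMSO stock (10 mM) diluted into 100 mM phosphate buffer pH 7.4, or into deionized distilled water for the aqueous assay, at 1% final DMSO and shaken 1 h at room temperature. After centrifugation, supernatants quantified by LC-MS/MS against a calibration curve with internal standard.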

The nature of data set [4]: Metabolic stability in human liver microsomal preparation. In kind it is in vitro ADME. Particulars: pH 7.4, human liver microsomes, NADPH, 37° C.; for half-life at 1 μM: 0-45 min, read-out: Metabolic Stability t1/2. In a few lines:
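Compound at 1.5 μM with 0.75 mg/mL human liver microsomes (concentrations before NADPH addition) in 0.1 M potassium phosphate, 1 mM EDTA, pH 7.4 was preincubated 5 min at 37 °C, then started with NADPH. Samples at 0, 5, 15, 30 and 45 min were quenched with acetonitrile/internal standard and analysed by LC/MS.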

A short description of data set [5]: Stability in human plasma. In kind it is in vitro ADME. Conditions: read-out: Plasma Stability T1/2. An outline of the steps: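 Pooled human plasma (pH 7.4-8) at 37° C, test compound spiked from a 0.02 mM solution in phosphate buffer with 0.5% BSA. Samples taken at 0, 5, 15, 30, 45 and 60 min, quenched with acetonitrile containing internal standard, and remaining compound measured by LC/MS.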

Data set [6] concerns the target glycolate oxidase (GOX) in HepaRG-CAR cells (Homo sapiens (Human), UniProt Q9UJM8). Nature of the data set: HepaRG-CAR cell-based assay for quantitation of glycolate oxidase inhibition (cellular glycolate flux, GC-MS).
A short description of data set [7]: Solubility in phosphate buffered saline (PBS), pH 7.4. Type of data set: physicochemical. Particulars: phosphate buffer (PBS), aqueous buffer, kinetic from dmso stock; phosphate buffered saline pH 7.4, 1% DMSO, 1 hour shaking at room temperature. In a few lines:
as §1

Setting [8] is: HepaRG-CAR cells, 500 μM glycolate, 48 hours incubation, read-out: IC50.

≈ marks a conversion by molar mass, not a printed value. Like-named read-outs stand apart in the source and are kept apart here.

recombinant full-length human hydroxyacid oxidase 1 (HAO1), the equivalent of hGOX, sequence (Q9UJM8 whole entry): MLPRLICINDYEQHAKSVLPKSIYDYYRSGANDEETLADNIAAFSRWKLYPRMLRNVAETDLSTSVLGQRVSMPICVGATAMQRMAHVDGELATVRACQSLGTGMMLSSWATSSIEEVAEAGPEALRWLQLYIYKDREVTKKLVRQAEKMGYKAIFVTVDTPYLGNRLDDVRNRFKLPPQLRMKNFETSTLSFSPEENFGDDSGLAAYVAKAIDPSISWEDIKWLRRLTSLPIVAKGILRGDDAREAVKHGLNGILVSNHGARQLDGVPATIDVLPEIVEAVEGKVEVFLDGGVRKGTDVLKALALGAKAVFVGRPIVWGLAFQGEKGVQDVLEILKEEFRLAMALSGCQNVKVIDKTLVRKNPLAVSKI
glycolate oxidase (GOX) in HepaRG-CAR cells, sequence (Q9UJM8 whole entry): as above

As for `O=C(O)c1nn[nH]c1Oc1cncc(-c2cccnc2)c1` [Example I-264, 5-([3,3′-Bipyridin]-5-yloxy)-1H-1,2,3-triazole-4-carboxylic acid], the half-maximal inhibitory concentration (IC50) in data set [1] was 380 nM; in data set [6] (setting [8]), above 10000 nM. The molecule further registered a recovery at 5 h, 1 μM in data set [2] of 123%. The solubility at 1 h in data set [3] came to 105 µM (≈ 29.7 µg/mL); in data set [7], 108 µM (≈ 30.4 µg/mL). Further, the CLint scaled at 1 μM in data set [4] is 0.17 mL/min/kg. In addition, the half-life at 1 μM in data set [4] is 173 h. For the same molecule, in data set [5], the half-life at 2 μM turned out to be 1.72 h.

On to `O=C(O)c1nn[nH]c1Oc1cccc(-c2cccnc2)c1` [Example I-259, 5-(3-(Pyridin-3-yl)phenoxy)-1H-1,2,3-triazole-4-carboxylic acid], for which the IC50 in data set [1] turned out to be 18 nM. Further, in data set [2], the recovery at 5 h, 1 μM was 105% and the fraction unbound at 5 h, 1 μM is 0.221. In data set [3], the solubility at 1 h was determined as 96.1 µM (≈ 27.1 µg/mL). Further, in data set [4], the CLint scaled at 1 μM was 0.45 mL/min/kg and the half-life at 1 μM stood at 64.3 h. Besides, the half-life at 2 μM in data set [5] came to 1.33 h. Besides, the IC50 in data set [6] (setting [8]) was found to be 2000 nM. In addition, the solubility at 1 h in data set [7] turned out to be 93.1 µM (≈ 26.3 µg/mL).

For `Cc1cc(Oc2[nH]nnc2C(=O)O)ccc1Cl` [Example I-258, 5-(4-Chloro-3-methylphenoxy)-1H-1,2,3-triazole-4-carboxylic acid], the IC50 is 44 nM in data set [1] and 300 nM in data set [6] (setting [8]). This molecule returned a recovery at 5 h, 1 μM in data set [2] of 110%. In addition, the values for the solubility at 1 h in data set [3] and in data set [7] were 93.5 µM (≈ 23.7 µg/mL) and 95.8 µM (≈ 24.3 µg/mL), respectively. Also, the CLint scaled at 1 μM in data set [4] is below 0.15 mL/min/kg. In addition, the half-life at 1 μM in data set [4] is above 83.3 h. Moreover, the half-life at 2 μM in data set [5] stood at 1.05 h.

Consider `O=C(O)c1nn[nH]c1Oc1ccc(-c2ccccc2F)cc1` [Example I-174, 5-((2′-Fluoro-[1,1′-biphenyl]-4-yl)oxy)-1H-1,2,3-triazole-4-carboxylic acid], for which the IC50 in data set [1] came to 27 nM; in data set [6] (setting [8]), 3000 nM. The same molecule returned a recovery at 5 h, 1 μM in data set [2] of 99.9%. The results for the solubility at 1 h in data set [3] and in data set [7] were 70.3 µM (≈ 21.1 µg/mL) and 89.8 µM (≈ 26.9 µg/mL), respectively. Besides, in data set [4], the CLint scaled at 1 μM came to 2.48 mL/min/kg. The half-life at 1 μM in data set [4] turned out to be 11.7 h. Besides, in data set [5], the half-life at 2 μM was found to be 1.17 h.

For `O=C(O)c1nn[nH]c1Oc1cccc(-c2ccccc2F)c1` [Example I-254, 5-((2′-Fluoro-[1,1′-biphenyl]-3-yl)oxy)-1H-1,2,3-triazole-4-carboxylic acid], the figures for the IC50 in data set [1] and in data set [6] (setting [8]) were 17 nM and 2500 nM, respectively. This molecule displayed a recovery at 5 h, 1 μM in data set [2] of 94.4%. Besides, the values for the solubility at 1 h in data set [3] and in data set [7] were 106 µM (≈ 31.7 µg/mL) and 114 µM (≈ 34.1 µg/mL), respectively. Further, the CLint scaled at 1 μM in data set [4] came out at 3.82 mL/min/kg. Moreover, in data set [4], the half-life at 1 μM is 7.58 h. Moreover, the half-life at 2 μM in data set [5] is 2.51 h.

As for `COc1ccc(-c2cccc(Oc3[nH]nnc3C(=O)O)c2)cc1` [Example I-250, 5-((4′-Methoxy-[1,1′-biphenyl]-3-yl)oxy)-1H-1,2,3-triazole-4-carboxylic acid], the IC50 in data set [1] came to 25 nM. Besides, in data set [2], the recovery at 5 h, 1 μM was 98.8% and the fraction unbound at 5 h, 1 μM is 0.089. Besides, the solubility at 1 h in data set [3] was 99.4 µM (≈ 30.9 µg/mL). In data set [4], the CLint scaled at 1 μM was determined as 8.95 mL/min/kg and the half-life at 1 μM was determined as 3.24 h. Moreover, the half-life at 2 μM in data set [5] was 2.43 h. In data set [6], the IC50 was above 5000 nM. This molecule registered a solubility at 1 h in data set [7] of 110 µM (≈ 34.1 µg/mL).

Regarding `N#Cc1cccc(-c2ccc(Oc3[nH]nnc3C(=O)O)cc2)c1` [Example I-256, 5-((3′-Cyano-[1,1′-biphenyl]-4-yl)oxy)-1H-1,2,3-triazole-4-carboxylic acid], the IC50 in data set [1] worked out at 22 nM; in data set [6] it was 10000 nM. Also, the recovery at 5 h, 1 μM in data set [2] worked out at 113%. Besides, the solubility at 1 h in data set [3] is 86.9 µM (≈ 26.6 µg/mL); in data set [7] it was 90.5 µM (≈ 27.7 µg/mL). Further, the CLint scaled at 1 μM in data set [4] stood at 0.4 mL/min/kg. For the same molecule, the half-life at 1 μM in data set [4] was 71.6 h. Further, in data set [5], the half-life at 2 μM was 8.52 h.

`O=C(O)c1[nH]nnc1Oc1ccc(-c2ccc(Cl)c(Cl)c2)cc1` [Example I-171, 5-((3′,4′-Dichloro-[1,1′-biphenyl]-4-yl)oxy)-1H-1,2,3-triazole-4-carboxylic acid]: the results for the IC50 in data set [1] and in data set [6] (setting [8]) were 10 nM and above 10000 nM, respectively. In data set [2], this molecule showed a recovery at 5 h, 1 μM of 87.5%. Also, the solubility at 1 h worked out at 45.8 µM (≈ 16 µg/mL) in data set [3] and 96.3 µM (≈ 33.7 µg/mL) in data set [7]. The molecule further yielded a CLint scaled at 1 μM in data set [4] of 14.4 mL/min/kg. In addition, the half-life at 1 μM in data set [4] came out at 2.01 h. In addition, the half-life at 2 μM in data set [5] was determined as 1.93 h.

Take `O=C(O)c1nn[nH]c1Oc1ccc(-c2ccc(F)cc2)cc1` [Example I-160, 5-((4′-Fluoro-[1,1′-biphenyl]-4-yl)oxy)-1H-1,2,3-triazole-4-carboxylic acid]: the IC50 was 12 nM in data set [1] and 2500 nM in data set [6] (setting [8]). For the same molecule, in data set [2], the recovery at 5 h, 1 μM turned out to be 93.6%. Also, the results for the solubility at 1 h in data set [3] and in data set [7] were 64.6 µM (≈ 19.3 µg/mL) and 101 µM (≈ 30.3 µg/mL), respectively. In data set [4], the CLint scaled at 1 μM was determined as 6.99 mL/min/kg. In data set [4], the half-life at 1 μM is 4.14 h. Also, in data set [5], the half-life at 2 μM is 2.88 h.

Regarding `O=C(O)c1nn[nH]c1Oc1cccc(-c2ccc(Cl)cc2)c1` [Example I-252, 5-((4′-Chloro-[1,1′-biphenyl]-3-yl)oxy)-1H-1,2,3-triazole-4-carboxylic acid], the results for the IC50 in data set [1] and in data set [6] (setting [8]) were 13 nM and 2000 nM, respectively. The same molecule gave a recovery at 5 h, 1 μM in data set [2] of 97.1%. The solubility at 1 h in data set [3] is 98 µM (≈ 30.9 µg/mL); in data set [7], 104 µM (≈ 32.8 µg/mL). Further, the CLint scaled at 1 μM in data set [4] is 7.66 mL/min/kg. For the same molecule, the half-life at 1 μM in data set [4] is 3.78 h. In addition, in data set [5], the half-life at 2 μM came out at 5.02 h.

For the molecule `O=C(O)c1nn[nH]c1Oc1cncc(-c2ccccc2)c1` [Example I-262, 5-((5-Phenylpyridin-3-yl)oxy)-1H-1,2,3-triazole-4-carboxylic acid], in data set [1], the IC50 was determined as 191 nM. Moreover, in data set [2], the recovery at 5 h, 1 μM is 120% and the fraction unbound at 5 h, 1 μM is 0.009. Further, the solubility at 1 h in data set [3] was determined as 94.2 µM (≈ 26.6 µg/mL). Besides, in data set [4], the CLint scaled at 1 μM was below 0.15 mL/min/kg and the half-life at 1 μM is above 83.3 h. In addition, in data set [5], the half-life at 2 μM is 1.63 h. For the same molecule, the IC50 in data set [6] (setting [8]) is above 10000 nM. Further, in data set [7], the solubility at 1 h is 97.2 µM (≈ 27.4 µg/mL).

With `O=C(O)c1nn[nH]c1Oc1cccc(-c2ccncc2)c1` [Example I-260, 5-(3-(Pyridin-4-yl)phenoxy)-1H-1,2,3-triazole-4-carboxylic acid], the IC50 in data set [1] is 21 nM. In data set [2], the recovery at 5 h, 1 μM stood at 114% and the fraction unbound at 5 h, 1 μM was 0.047. In data set [3], the solubility at 1 h amounted to 94.4 µM (≈ 26.6 µg/mL). Further, in data set [4], the CLint scaled at 1 μM was found to be 2.81 mL/min/kg and the half-life at 1 μM was determined as 10.3 h. In addition, in data set [5], the half-life at 2 μM was 1.79 h. Besides, the IC50 in data set [6] (setting [8]) was found to be 2500 nM. In data set [7], this molecule yielded a solubility at 1 h of 100 µM (≈ 28.4 µg/mL).

Take `O=C(O)c1nn[nH]c1Oc1cccc(-c2ccccc2)c1` [Example I-249, 5-([1,1′-Biphenyl]-3-yloxy)-1H-1,2,3-triazole-4-carboxylic acid]: the IC50 in data set [1] was found to be 19 nM; in data set [6] (setting [8]) it was 2000 nM. Further, the recovery at 5 h, 1 μM in data set [2] was found to be 99.2%. The solubility at 1 h in data set [3] was determined as 108 µM (≈ 30.2 µg/mL); in data set [7], 103 µM (≈ 29.1 µg/mL). In data set [4], the CLint scaled at 1 μM was 5 mL/min/kg. Also, in data set [4], the half-life at 1 μM is 5.79 h. The half-life at 2 μM in data set [5] stood at 3.71 h.
